Each structure is given as a SMILES string.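 Protocol summary: plate cells (96-well), add compound at 5 concentrations, incubate 48 h, interpolate endpoints linearly. The concentration for 50% growth inhibition is given as GI50.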 Calls of active or inactive are those of the source. No stated cut-off is given here; in the data, active = GI50 up to about 1.1 µM and inactive = higher.

The text below walks through data of ChEMBL document CHEMBL1201862, “PubChem BioAssay data set” (2004).

Among the test systems are 786-0; A549; CAKI-1; DMS-273; HCT-116; HCT-15; HOP-92; IGROV-1; K562; NCI-H23; SF-539; SK-MEL-5; SN12C; SNB-19; UACC-257.
What all share (assay): NCI-60 cell line screen, 48 h

On to `COc1ccc(C(=O)NCCC2=CCCCC2)cc1`, for which the GI50 was > 100 µM (inactive) with 786-0; > 100 µM (inactive) with A549; > 100 µM (inactive) in the assay on CAKI-1; > 100 µM (inactive) with DMS-273; > 100 µM (inactive) in the assay on HCT-116; over 100 µM with HCT-15. Also, the GI50 in the assay with HOP-92 is 78.5 µM (inactive); in the assay with IGROV-1, > 100 µM (inactive); with K562, > 100 µM (inactive); in the assay on NCI-H23, > 100 µM (inactive); with SF-539, > 100 µM (inactive); in the assay on SK-MEL-5, > 100 µM (inactive). Moreover, the GI50 with SN12C, in the assay with SNB-19 and with UACC-257 was > 100 µM (inactive) in each case.

On to `O=C1/C(=C/c2ccc3c(c2)OCO3)SC2C=Nc3ccccc3N12` (stereo not given), for which the GI50 in the assay with 786-0 is > 100 µM (inactive); in the assay on A549 it was > 100 µM (inactive); in the assay on CAKI-1, > 100 µM (inactive); in the assay with DMS-273, > 100 µM (inactive); with HCT-116, > 100 µM (inactive); in the assay with HCT-15 it was over 100 µM. Also, the GI50 is > 100 µM (inactive) in the assay with HOP-92; > 100 µM (inactive) with IGROV-1; > 100 µM (inactive) with NCI-H23; 86.1 µM (inactive) in the assay with SF-539; > 100 µM (inactive) with SK-MEL-5; > 100 µM (inactive) in the assay with SN12C. For the same compound, the GI50 in the assay on SNB-19 and in the assay on UACC-257 was > 100 µM (inactive) throughout.

As for `CC1(Cl)CC2OC3(Br)C=CC(C)(O)C2(CC1Br)C3(C)C` (stereo not given), the GI50 in the assay on 786-0 is > 100 µM (inactive); in the assay on A549 it was > 100 µM (inactive); with CAKI-1 it was > 100 µM (inactive); in the assay on DMS-273, > 100 µM (inactive); with HCT-116 it was > 100 µM (inactive); in the assay with HCT-15, over 100 µM. Also, the GI50 with HOP-92 was 50.9 µM (inactive); in the assay with IGROV-1, > 100 µM (inactive); with K562 it was > 100 µM (inactive); in the assay on NCI-H23 it was > 100 µM (inactive); in the assay with SF-539, > 100 µM (inactive); in the assay with SK-MEL-5 it was > 100 µM (inactive). Also, the values for the GI50 with SN12C, in the assay on SNB-19 and with UACC-257 were > 100 µM (inactive), > 100 µM (inactive) and 97.5 µM (inactive), respectively.

`[O-][S+]1CSCS1` (stereo not given): the GI50 with 786-0, with A549, in the assay on CAKI-1, in the assay on DMS-273, in the assay on HCT-116 and in the assay with HOP-92 was > 100 µM (inactive) each time. Further, the GI50 with IGROV-1, with K562, with NCI-H23, with SF-539, in the assay on SK-MEL-5 and with SN12C was > 100 µM (inactive) in each case. Also, the GI50 in the assay on SNB-19 and in the assay with UACC-257 was > 100 µM (inactive) each time.

On to `CC1CC(C)C(=O)C(C(=O)CC2CC(=O)NC2=O)C1` (stereo not given), for which the GI50 in the assay on 786-0, with A549, in the assay on CAKI-1, with DMS-273, with HCT-116 and in the assay with HOP-92 was > 100 µM (inactive) each time. Further, the GI50 in the assay on IGROV-1, in the assay on K562, in the assay on NCI-H23, in the assay on SF-539, with SN12C and in the assay on SNB-19 was > 100 µM (inactive) throughout. For the same compound, in the assay with UACC-257, the GI50 was > 100 µM (inactive).

Turning to `O=C(O)/C=C\C(=O)c1ccc(Cl)cc1`, the GI50 in the assay on 786-0 is 28.9 µM (inactive); in the assay with A549 it was > 100 µM (inactive); in the assay on CAKI-1, 24.7 µM (inactive); in the assay with DMS-273, 20.2 µM (inactive); in the assay with HCT-116 it was 25.2 µM (inactive); in the assay with HCT-15, 20.7 µM. In addition, the GI50 was 24.5 µM (inactive) in the assay on HOP-92; > 70.1 µM (inactive) with IGROV-1; 31.1 µM (inactive) with K562; 31.8 µM (inactive) with NCI-H23; 25.1 µM (inactive) with SF-539; > 83.9 µM (inactive) with SK-MEL-5. Also, the GI50 in the assay with SN12C was 51.9 µM (inactive); with SNB-19 it was > 63 µM (inactive); with UACC-257 it was 20.1 µM (inactive).

Regarding `C=C=C(C(=O)OC)[S+]([O-])c1ccc([N+](=O)[O-])cc1[N+](=O)[O-]` (stereo not given), the GI50 with 786-0 was 39.7 µM (inactive); in the assay on A549, 52.7 µM (inactive); in the assay with CAKI-1, 25.9 µM (inactive); in the assay on DMS-273 it was 37.4 µM (inactive); in the assay with HCT-116, 21.4 µM (inactive); with HCT-15, 21.5 µM. The GI50 in the assay on HOP-92 was 18.6 µM (inactive); in the assay on IGROV-1, > 69.8 µM (inactive); in the assay with K562, 20 µM (inactive); with NCI-H23, 53.8 µM (inactive); with SF-539, 26.1 µM (inactive); in the assay with SK-MEL-5, 36.2 µM (inactive). In addition, the GI50 with SN12C is 22.4 µM (inactive); in the assay with SNB-19 it was 56 µM (inactive); in the assay with UACC-257, 34.9 µM (inactive).

`O=C(c1ccc(Cl)cc1)c1ccc(OCCCOc2ccc(C(=O)c3ccc(Cl)cc3)cc2)cc1`: the GI50 is > 100 µM (inactive) in the assay on 786-0; > 100 µM (inactive) with A549; > 100 µM (inactive) in the assay on CAKI-1; > 100 µM (inactive) in the assay with DMS-273; > 100 µM (inactive) in the assay with HCT-116; over 100 µM in the assay on HCT-15. For the same compound, the GI50 in the assay on HOP-92 was 78.9 µM (inactive); in the assay on IGROV-1, > 100 µM (inactive); in the assay with K562 it was > 100 µM (inactive); in the assay with NCI-H23, > 100 µM (inactive); in the assay with SF-539, > 100 µM (inactive); in the assay on SK-MEL-5, > 100 µM (inactive). Also, the GI50 with SN12C, with SNB-19 and in the assay with UACC-257 was > 100 µM (inactive) throughout.

For `O=C(c1nc2ccc(Cl)cc2[nH]c1=O)C(O)c1ccco1` (stereo not given), the GI50 with 786-0 is > 100 µM (inactive); in the assay on A549 it was 50 µM (inactive); with CAKI-1, 53 µM (inactive); with DMS-273, 35.5 µM (inactive); in the assay with HCT-116 it was 46.7 µM (inactive); in the assay on HCT-15 it was 15.5 µM. In addition, the GI50 is > 100 µM (inactive) in the assay with HOP-92; 45.9 µM (inactive) with IGROV-1; 22.1 µM (inactive) in the assay with K562; > 100 µM (inactive) with NCI-H23; 38.1 µM (inactive) in the assay on SF-539; 25.5 µM (inactive) with SK-MEL-5. Moreover, the GI50 with SNB-19 and in the assay with UACC-257 was > 100 µM (inactive) throughout.

For the compound `Cc1cc([N+](=O)[O-])c(S(=O)(=O)c2ccccc2)c([N+](=O)[O-])c1`, the GI50 is 3.95 µM (inactive) in the assay with 786-0; 23.6 µM (inactive) in the assay on A549; 3.62 µM (inactive) with CAKI-1; 12.9 µM (inactive) in the assay with DMS-273; 9.75 µM (inactive) in the assay with HCT-116; 16 µM in the assay on HCT-15. The GI50 in the assay on HOP-92 is 2.43 µM (inactive); in the assay on IGROV-1, 12.6 µM (inactive); with K562, 4.08 µM (inactive); in the assay on NCI-H23, 8.53 µM (inactive); with SF-539, 12.7 µM (inactive); in the assay on SK-MEL-5, 14.2 µM (inactive). Moreover, the results for the GI50 with SN12C, with SNB-19 and with UACC-257 were 4.43 µM (inactive), 18.5 µM (inactive) and 3.52 µM (inactive), respectively.

On to `O=C(Nc1ccc(Br)cc1)C(=O)C(C(=O)c1ccccc1F)C1OC(=O)c2ccccc21` (stereo not given), for which the GI50 is 22.5 µM (inactive) in the assay with 786-0; 39.7 µM (inactive) in the assay with A549; 37.8 µM (inactive) in the assay with CAKI-1; 31 µM (inactive) in the assay on DMS-273; 17.7 µM (inactive) with HCT-116; 28.8 µM with HCT-15. Further, the GI50 with HOP-92 is 27.7 µM (inactive); in the assay with IGROV-1, 31.4 µM (inactive); in the assay on K562, 31 µM (inactive); with NCI-H23, 17.9 µM (inactive); with SF-539, 20.1 µM (inactive); in the assay with SK-MEL-5 it was 27.2 µM (inactive). In addition, the GI50 is 27.9 µM (inactive) with SN12C, 20.3 µM (inactive) in the assay with SNB-19 and 24.8 µM (inactive) with UACC-257.

Consider `COc1cc(Br)c(/C=N/N=C(\N)NO)cc1OC`, for which the GI50 with 786-0 is 18.4 µM (inactive); with A549, 10.4 µM (inactive); in the assay on CAKI-1 it was 14.7 µM (inactive); in the assay on DMS-273 it was 40.8 µM (inactive); with HCT-116, 15.2 µM (inactive); in the assay with HCT-15, 36 µM. Moreover, the GI50 in the assay on HOP-92 is 23.6 µM (inactive); in the assay with IGROV-1, 30.4 µM (inactive); in the assay with K562, 15.7 µM (inactive); with NCI-H23, 26 µM (inactive); with SF-539 it was 24.7 µM (inactive); with SK-MEL-5, 6.78 µM (inactive). The values for the GI50 in the assay with SN12C, in the assay on SNB-19 and in the assay on UACC-257 were 24.6 µM (inactive), 46.3 µM (inactive) and 17.3 µM (inactive), respectively.

As for `CN(C)CCNC(=O)c1cccc2c1nc(-c1ccccn1)c1ccccc12`, the GI50 in the assay with 786-0 is 18.9 µM (inactive); in the assay with A549 it was 11.8 µM (inactive); in the assay on CAKI-1, 18.1 µM (inactive); with DMS-273 it was 13.5 µM (inactive); in the assay with HCT-116, 10.3 µM (inactive); with HCT-15, 13.8 µM. Besides, the GI50 is 18.6 µM (inactive) in the assay with HOP-92; 16.1 µM (inactive) in the assay on IGROV-1; 16.9 µM (inactive) in the assay with K562; 15.7 µM (inactive) in the assay on NCI-H23; 16.4 µM (inactive) in the assay on SF-539; 15.2 µM (inactive) in the assay on SK-MEL-5. In addition, the GI50 with SN12C was 23.9 µM (inactive); in the assay with SNB-19 it was 30.7 µM (inactive); with UACC-257 it was 16.7 µM (inactive).

With `CCCCCC(=O)Nc1nc(O)c2[nH]cnc2n1`, the GI50 with 786-0 was > 100 µM (inactive); with A549 it was > 100 µM (inactive); in the assay on CAKI-1, > 100 µM (inactive); with DMS-273, > 100 µM (inactive); in the assay on HCT-116 it was > 100 µM (inactive); with HCT-15, over 100 µM. The GI50 in the assay with HOP-92, in the assay on IGROV-1, in the assay with K562, with NCI-H23, in the assay on SF-539 and in the assay on SK-MEL-5 was > 100 µM (inactive) in each case. Moreover, the GI50 in the assay on SN12C, in the assay with SNB-19 and in the assay with UACC-257 was > 100 µM (inactive) in each case.
